From patent publication US20250205155A1, “FORMULATIONS COMPRISING MELPHALAN FLUFENAMIDE AND CYCLODEXTRIN” (Oncopeptides Innovation AB, priority 2022, published 2025)
“And” between values parts separate entries of the source, which are not always exact repeats. Equal entries are not always repeated. Structures can show the parent of a compound that is named as a salt. Where two headings read alike, the source gives them in different places.

Legend:
[1] = Stability of lyophilised Ex 1-excipient mixtures in 5% glucose solution (HPLC); type: physicochemical; conditions: 25° C. to 30° C. for 22 hours
Experimental: The following excipients were used: trehalose dihydrate, sucrose, polysorbate 80, α-cyclodextrin, β-cyclodextrin, propylene glycol, 2-hydroxypropyl-β-cyclodextrin, and γCD.
(§1) A stock solution of each excipient was prepared in water (10 mg/mL). An aliquot of 400 μL (4 mg) of each stock solution was then transferred to a separate transparent 4 mL vial. The vials containing the stock solutions were then cooled and lyophilized using a Christ Alpha 2-4 LSC Plus instrument.
(§2) The mixtures were cooled and lyophilized overnight.
1 mL of a 5% glucose solution (w/v in water) containing 0.08 mg/mL 3-methoxybenzoic as an internal standard was added to each vial containing a lyophilized Ex 1-excipient mixture. The vials were then mixed by shaking for 15 seconds, and then shaken occasionally for 5 minutes. The solutions were transferred to Whatman® Mini-UniPrep® syringeless filters and filtered according to the manufacturer's instructions. The filtrate was transferred to a glass vial to prevent further dissolution. These filtrates represent the starting concentrations of melphalan flufenamide for each solution (i.e. the to samples). The to samples were analysed by HPLC as described below and then stored at 25° C. to 30° C. for 22 hours. […]

[2] = Ex 1 lyophilised with HPγCD: reconstitution and stability at infusion concentration; type: physicochemical; conditions: for reconstitution concentration: lyophilised with HPγCD (1:67 w/w), 0.9% saline, fully dissolved
Experimental: The weight ratio (w/w) of melphalan flufenamide (free base):hydroxypropyl-γ-cyclodextrin was 1:67. The mixture was stirred for 30 min at room temperature before being lyophilized overnight. A white, fluffy lyo-cake was formed. The lyophilized material was kept refrigerated for 5 months. 0.9% saline (9000 μL) was added to the lyo-cake and the mixture was vortexed for 1 min. The material was fully dissolved to make a 3.0 mg/mL solution. […] The reconstituted solution was diluted to 0.10 mg/mL in 0.9% saline. […] The stability of the approved drug product […] at 0.10 mg/mL in 0.9% saline after 17 hours at room temperature is approximately 56%.

[3] = Solubility of Ex 1 in aqueous solution in the absence of an excipient; conditions: aqueous solution without excipient, water
[4] = Rate of dissolution of lyophilised Ex 1-excipient mixtures in 5% glucose solution, 15 seconds (HPLC); type: physicochemical; conditions: solution containing γCD
Experimental: as §1, §2
A 5% glucose solution (w/v in water) containing 0.08 mg/mL 3-methoxybenzoic as an internal standard was added to each vial containing a lyophilized Ex 1-excipient mixture. The vials were then mixed by shaking for 15 seconds. Approximately half of the solution was then transferred to a Whatman® Mini-UniPrep© syringeless filter and filtered according to the manufacturer's instructions. The filtrate was immediately transferred to a glass vial to prevent further dissolution.
HPLC analysis of each sample was performed using the same method as described in Example 1.

[5] = Stability of melphalan flufenamide drug product in γCD 5% glucose solutions at RT; type: physicochemical
Experimental: A stock solution of 23 mg/mL γCD 5% glucose solution (w/v in water) was used to prepare working solutions containing 1 mg, 5 mg, 10 mg, 15 mg, 18 mg, 20 mg or 23 mg/mL γCD.
Approximately 50 mg of the melphalan flufenamide drug product (containing approximately 1 mg of melphalan flufenamide) was transferred to […] different 4 mL clear glass vials, followed by addition of 1 mL of a γCD working solution. The solutions were stirred for 5 minutes. The solutions were then filtered through a 0.45 μm PTFE filter. The filtrates were analysed by HPLC immediately after sample preparation (i.e. at t0), and then after 2 hours, 5 hours, 7 hours or 18 hours of storage at RT (approximately 23° C.).
HPLC analysis was performed using an Agilent 1260 series HPLC. Analyses were performed using a Poroshell column 3×50 mm EC-C18 column with a gradient of 5% to 97% acetonitrile, 0.1% formic acid over 3 min and a flow of 1 mL/min. An injection volume 0.2 μL was used. The melphalan flufenamide concentration in each sample was determined by HPLC analysis using a calibration curve for melphalan flufenamide.

[6] = Ex 1 lyophilised with HPγCD in different ratios: reconstitution and stability; type: physicochemical; conditions: HPγCD weight ratio 1:16, 1:20, 1:24 or 1:28, 20 hours at room temperature
Experimental: A 10 wt % solution of hydroxypropyl-γ-cyclodextrin (1750 mg) in t-BuOH/water 1:1 (15.75 g) and a 1:1 tBuOH/water solution were prepared. […] The solutions were lyophilized for 4 d.
The lyophilized material of entries 1 to 4 of Table 10 was reconstituted with 0.9% saline to make 0.5 mg/mL, 1.0 mg/mL and 2.0 mg/mL reconstituted solutions. The lyophilized material fully dissolved in each reconstituted solution. Portions of the 0.5 mg/mL, 1.0 mg/mL and 2.0 mg/mL reconstituted solutions were then diluted to 0.10 mg/mL in 0.9% saline (infusion concentration) and these 0.10 mg/mL solutions, and also a samples of the 0.5 mg/mL reconstituted solutions, were analyzed by HPLC after 0, 4 and 20 hours at room temperature.

[7] = type: physicochemical
Experimental: The samples were analysed after 0 h and the samples were stored at room temperature or in the fridge and analysed after 18 h. The remaining API (i.e. the remaining melphalan flufenamide) was reported relative to the area under the curve at t=0 h.
(§3) Analytical HPLC was carried out on an Agilent Series 1100 system using a Kinetex XB C18 (2.6 μm, 3.0×50 mm) column with 0.1% TFA in MiliQ H2O/MeCN as mobile phase (flow 1 mL/min). 5-97% MeCN in 3 minutes.

[8] = Stability of Ex 2 in glucose or saline with and without 16 mg/mL HPγCD at room temperature; type: physicochemical; conditions: 5 hours at room temperature
Experimental: Stock solutions of 16 mg/mL hydroxypropyl-γ-cyclodextrin in 5% glucose and in 0.9% saline were prepared. 20 mg/mL (free base) solution of the compound of Example 2 in propylene glycol was prepared.
To a 2 mL clear vial was added the amounts of each stock solution according to the Table 4 below.
The samples were stored at room temperature and analysed after 0, 2, 5 and 23 h on HPLC. The degradation of the compound was reported relative to the area under the curve at time=0 h. The percentage figure in Table 5 below represents the proportion of remaining compound of Ex 2.
as §3

[9] = Stability of melphalan flufenamide infusion solution with and without γCD at 5° C.; type: physicochemical; conditions: for decrease of melphalan flufenamide content: infusion solution not comprising γCD
Experimental: A control infusion solution containing no γCD was prepared in accordance with the following method, which is in line with the protocol set out in the U.S. Prescribing Information (USPI) for PEPAXTO® dated February 2021:
An infusion solution containing γCD was prepared according to steps 1 to 5 above, except that step 2 included a step of adding 320 mg of γCD into each vial (i.e. 1:16 ratio w/w of melphalan flufenamide to γCD) followed by mixing the powders by vortex. Steps 3 to 5 were then carried out as set out above.
Immediately after preparation of each infusion solution, 4 mL was withdrawn from the infusion bag and the melphalan flufenamide content was determined by HPLC analysis. These samples represent each infusion solution at the start of the stability study (i.e. the to samples). Each infusion bag was then stored at 5° C. […] The melphalan flufenamide content of each sample was determined by HPLC analysis.
The melphalan flufenamide content of each sample of infusion solution was determined by HPLC analysis using the method described in Example 5.

[10] = Stability of Ex 1 / Ex 2 propylene glycol liquid formulations diluted in γCD saline or glucose solution; type: physicochemical
Experimental: Stock solutions containing 16 mg/mLγCD in […].
The samples were mixed by vortex for 10 seconds and then filtered through a 0.45 μm PTFE filter. The filtrates were analysed by HPLC immediately after sample preparation (i.e. at t0), and then after 2 hours, 5 hours, 7 hours or 18 hours of storage at RT (approximately 23° C.).

Which “decrease of melphalan flufenamide content relative to t0” value ([1]; solution with γCD) does the source give for CCOC(=O)[C@H](Cc1ccc(F)cc1)NC(=O)[C@@H](N)Cc1ccc(N(CCCl)CCCl)cc1 [Ex 1, melphalan flufenamide hydrochloride] here?
The value was 31%.

And the “Ex 1 remaining in solution” value ([1]; γCD 5% glucose solution, γCD:melphalan flufenamide about 4:1 w/w)?
Its value is 69%.

What about the “Ex 1 remaining” value ([2]; lyophilised with HPγCD 1:67 w/w, reconstituted 3.0 mg/mL, diluted to 0.10 mg/mL in 0.9% saline, 17 hours at room temperature) of the same molecule?
The value was 91%.

And the reconstitution concentration ([2]; hydrochloride)?
The reconstitution concentration was 3.0 mg/mL and 3 mg/mL.

And the solubility [3]?
The solubility was less than 400 µg/mL.

What about the “Ex 1 dissolved within the first 15 seconds of mixing” value [4] of the same molecule?
The value was 68%.

With CCOC(=O)[C@H](Cc1ccc(F)cc1)NC(=O)[C@@H](N)Cc1ccc(N(CCCl)CCCl)cc1 [melphalan flufenamide, ethyl (2S)-2-[[(2S)-2-amino-3-[4-[bis(2-chloroethyl)amino]phenyl]propanoyl]amino]-3-(4-fluorophenyl)propanoate] as the molecule, how does the “stabilisation by γCD” value ([5]; 1 to 23 equivalents of γCD (w/w), up to 18 hours) read?
Its value is “stabilised”.

What about the “stability by γCD ratio” value ([5]; 15, 18 and 23 equivalents of γCD (w/w)) of the same molecule?
The value was “most stable”.

What about the “melphalan flufenamide content retained” value ([6]; 0.1 mg/mL) of the same molecule?
The value was “over 80%”.

And the “melphalan flufenamide content retained” value ([6]; 0.5 mg/mL)?
The value was greater than 90%.

What about the “melphalan flufenamide content retained” value ([7]; 0.2 mg/mL, HPγCD weight ratio 1:20, 1:24, 1:28, 1:32, 1:36 or 1:40, 18 hours at room temperature) of the same molecule?
The value was “over 78%”.

What about the “melphalan flufenamide content retained” value ([7]; 0.2 mg/mL, HPγCD weight ratio 1:20 to 1:40, 18 hours in a fridge) of the same molecule?
The value was “over 93%”.

What about the “melphalan flufenamide content retained” value ([7]; aqueous solution, HPγCD about 36:1 w/w, 18 hours at room temperature) of the same molecule?
Its value is 87%.

What about the reconstitution concentration [2] of the same molecule?
Its reconstitution concentration is “up to 3.0 mg/mL”.

What about the “average decrease of melflufen flufenamide content” value ([8]; saline infusion solution with hydroxypropyl-γCD) of the same molecule?
Its value is “about 4%”.

And the “average decrease of melflufen flufenamide content” value ([8]; saline infusion solution without HPγCD)?
Its value is “about 40%”.

And the “decrease of melphalan flufenamide content relative to t0” value ([9]; control infusion solution without γCD, 43 hours at 5° C.)?
The value was “approximately 10%”.

What about the “decrease of melphalan flufenamide content” value ([9]; 24 hours at 5° C.) of the same molecule?
The value was “approximately 7%”.

What about the “decrease of melphalan flufenamide content” value ([9]; 24 hours at 5° C., listed as melflufen flufenamide) of the same molecule?
Its value is “about 5%”.

And the degradation rate ([9]; saline infusion solution comprising γCD, 5° C.)?
The degradation rate was “about 1 % per 24 hours”.

And the “decrease of melflufen flufenamide content” value ([9]; saline infusion solution not comprising γCD, 48 hours at 5° C.)?
Its value is “about 8%”.

What about the “decrease of melflufen flufenamide content” value ([9]; saline infusion solution with γCD, 24 hours at 5° C.) of the same molecule?
Its value is “about 1%”.

What about the “decrease of melflufen flufenamide content” value ([9]; saline infusion solution with γCD, 48 hours at 5° C.) of the same molecule?
The value was “about 2%”.

With [2H]C([2H])([2H])C([2H])([2H])OC(=O)[C@H](Cc1ccc(F)cc1)NC(=O)[C@@H](N)Cc1ccc(N(CCCl)CCCl)cc1 [Ex 2, (^2H5)ethyl (2S)-2-[(2S)-2-amino-3-{4-[bis(2-chloroethyl)amino]phenyl}propanamido]-3-(4-fluorophenyl)propanoate hydrochloride] as the molecule, how does the “stability of Ex 2 in control solutions” value ([10]; 6% propylene glycol and saline only or 6% propylene glycol and 5% glucose only) read?
The value was “poor stability”.

And the “stability of Ex 2 in the presence of γCD” value ([10]; saline or 5% glucose solution, γCD about 16:1, 30:1, 80:1 w/w, hydrochloride)?
Its value is “improved the stability”.
